As a reminder, the EC50 is the concentration at which the effect is half-maximal. A higher EC50 goes with weaker potency.

Experimental findings from ChEMBL document CHEMBL4382200, “Discovery of Novel 7-Aryl 7-Deazapurine 3'-Deoxy-ribofuranosyl Nucleosides with Potent Activity against Trypanosoma cruzi” (J Med Chem, 2018) are described below.

Data set [1] relates to Cytochrome P450. Description: Drug metabolism in human liver microsome S9 fraction assessed as CYP450-mediated metabolism by measuring compound remaining at 5 uM pretreated with NADPH and measured after 15 mins by UPLC-MS/MS analysis. It counts as ADME, microsomes. The settings on record: microsomes, 0.25 h, 5 µM. (Liver microsomes are a subcellular fraction often used to study metabolism.)

Data set [2] can be described thus: Drug metabolism in mouse liver microsome S9 fraction assessed as CYP450-mediated metabolism by measuring compound remaining at 5 uM pretreated with NADPH and measured after 15 mins by UPLC-MS/MS analysis. The data set is classed as ADME, microsomes. The settings on record: microsomes, 0.25 h, 5 µM.
Data set [3] can be described thus: Drug metabolism in mouse liver microsome S9 fraction assessed as CYP450-mediated metabolism by measuring compound remaining at 5 uM pretreated with NADPH and measured after 30 mins by UPLC-MS/MS analysis. The data set is classed as ADME, microsomes. To be noted: microsomes, 0.5 h, 5 µM.
The nature of data set [4]: Drug metabolism in mouse liver microsome S9 fraction assessed as CYP450-mediated metabolism by measuring compound remaining at 5 uM pretreated with NADPH and measured after 60 mins by UPLC-MS/MS analysis. It counts as ADME, microsomes. To be noted: microsomes, 1 h, 5 µM.
Data set [5] is described as follows: Drug metabolism in mouse liver microsome S9 fraction assessed as UGT-mediated metabolism by measuring compound remaining at 5 uM pretreated with UDPGA and measured after 15 mins by UPLC-MS/MS analysis. The settings on record: microsomes, 0.25 h, 5 µM. It counts as ADME, microsomes.
A short description of data set [6]: Drug metabolism in mouse liver microsome S9 fraction assessed as UGT-mediated metabolism by measuring compound remaining at 5 uM pretreated with UDPGA and measured after 30 mins by UPLC-MS/MS analysis. It counts as ADME, microsomes. The settings on record: microsomes, 0.5 h, 5 µM.
The nature of data set [7]: Drug metabolism in mouse liver microsome S9 fraction assessed as UGT-mediated metabolism by measuring compound remaining at 5 uM pretreated with UDPGA and measured after 60 mins by UPLC-MS/MS analysis. The data set is classed as ADME, microsomes. To be noted: microsomes, 1 h, 5 µM.
A short description of data set [8]: Drug metabolism in rat liver microsome S9 fraction assessed as CYP450-mediated metabolism by measuring compound remaining at 5 uM pretreated with NADPH and measured after 15 mins by UPLC-MS/MS analysis. The data set is classed as ADME, microsomes. The settings on record: microsomes, 0.25 h, 5 µM.
Data set [9] in a line: Drug metabolism in rat liver microsome S9 fraction assessed as CYP450-mediated metabolism by measuring compound remaining at 5 uM pretreated with NADPH and measured after 30 mins by UPLC-MS/MS analysis. It counts as ADME, microsomes. The settings on record: microsomes, 0.5 h, 5 µM.
A short description of data set [10]: Drug metabolism in rat liver microsome S9 fraction assessed as CYP450-mediated metabolism by measuring compound remaining at 5 uM pretreated with NADPH and measured after 60 mins by UPLC-MS/MS analysis. The data set is classed as ADME, microsomes. To be noted: microsomes, 1 h, 5 µM.
Data set [11] in a line: Drug metabolism in rat liver microsome S9 fraction assessed as UGT-mediated metabolism by measuring compound remaining at 5 uM pretreated with UDPGA and measured after 15 mins by UPLC-MS/MS analysis. The data set is classed as ADME, microsomes. The settings on record: microsomes, 0.25 h, 5 µM.
Data set [12] is described as follows: Drug metabolism in rat liver microsome S9 fraction assessed as UGT-mediated metabolism by measuring compound remaining at 5 uM pretreated with UDPGA and measured after 30 mins by UPLC-MS/MS analysis. The data set is classed as ADME, microsomes. The settings on record: microsomes, 0.5 h, 5 µM.
Data set [13] in a line: Drug metabolism in rat liver microsome S9 fraction assessed as UGT-mediated metabolism by measuring compound remaining at 5 uM pretreated with UDPGA and measured after 60 mins by UPLC-MS/MS analysis. The data set is classed as ADME, microsomes. The settings on record: microsomes, 1 h, 5 µM.
Data set [14] is described as follows: Drug metabolism in dog liver microsome S9 fraction assessed as CYP450-mediated metabolism by measuring compound remaining at 5 uM pretreated with NADPH and measured after 15 mins by UPLC-MS/MS analysis. It counts as ADME, microsomes, Canis lupus familiaris. To be noted: microsomes, 0.25 h, 5 µM.
Data set [15] is described as follows: Drug metabolism in dog liver microsome S9 fraction assessed as CYP450-mediated metabolism by measuring compound remaining at 5 uM pretreated with NADPH and measured after 30 mins by UPLC-MS/MS analysis. The settings on record: microsomes, 0.5 h, 5 µM. The data set is classed as ADME, microsomes, Canis lupus familiaris.
The nature of data set [16]: Drug metabolism in dog liver microsome S9 fraction assessed as UGT-mediated metabolism by measuring compound remaining at 5 uM pretreated with UDPGA and measured after 30 mins by UPLC-MS/MS analysis. The data set is classed as ADME, microsomes, Canis lupus familiaris. The settings on record: microsomes, 0.5 h, 5 µM.
Data set [17] can be described thus: Drug metabolism in dog liver microsome S9 fraction assessed as CYP450-mediated metabolism by measuring compound remaining at 5 uM pretreated with NADPH and measured after 60 mins by UPLC-MS/MS analysis. The data set is classed as ADME, microsomes, Canis lupus familiaris. To be noted: microsomes, 1 h, 5 µM.
Data set [18] is described as follows: Drug metabolism in dog liver microsome S9 fraction assessed as UGT-mediated metabolism by measuring compound remaining at 5 uM pretreated with UDPGA and measured after 15 mins by UPLC-MS/MS analysis. The settings on record: microsomes, 0.25 h, 5 µM. It counts as ADME, microsomes, Canis lupus familiaris.
The nature of data set [19]: Drug metabolism in dog liver microsome S9 fraction assessed as UGT-mediated metabolism by measuring compound remaining at 5 uM pretreated with UDPGA and measured after 60 mins by UPLC-MS/MS analysis. It counts as ADME, microsomes, Canis lupus familiaris. The settings on record: microsomes, 1 h, 5 µM.
Data set [20] has as its system Cytochrome P450. Description: Drug metabolism in human liver microsome S9 fraction assessed as CYP450-mediated metabolism by measuring compound remaining at 5 uM pretreated with NADPH and measured after 30 mins by UPLC-MS/MS analysis. To be noted: microsomes, 0.5 h, 5 µM. It counts as ADME, microsomes.
In data set [21] the test system is Cytochrome P450. Description: Drug metabolism in human liver microsome S9 fraction assessed as CYP450-mediated metabolism by measuring compound remaining at 5 uM pretreated with NADPH and measured after 60 mins by UPLC-MS/MS analysis. It counts as ADME, microsomes. To be noted: microsomes, 1 h, 5 µM.
In data set [22] the test system is UDP-glucuronosyltransferases (UGTs). Description: Drug metabolism in human liver microsome S9 fraction assessed as UGT-mediated metabolism by measuring compound remaining at 5 uM pretreated with UDPGA and measured after 15 mins by UPLC-MS/MS analysis. To be noted: microsomes, 0.25 h, 5 µM. The data set is classed as ADME, microsomes.
Data set [23] has the same test system. Description: Drug metabolism in human liver microsome S9 fraction assessed as UGT-mediated metabolism by measuring compound remaining at 5 uM pretreated with UDPGA and measured after 30 mins by UPLC-MS/MS analysis. The data set is classed as ADME, microsomes. The settings on record: microsomes, 0.5 h, 5 µM.
For data set [24] the test system is unchanged. Description: Drug metabolism in human liver microsome S9 fraction assessed as UGT-mediated metabolism by measuring compound remaining at 5 uM pretreated with UDPGA and measured after 60 mins by UPLC-MS/MS analysis. It counts as ADME, microsomes. The settings on record: microsomes, 1 h, 5 µM.
The subject of another data set is Trypanosoma cruzi. The data set is described as follows: Antiparasitic activity against Trypanosoma cruzi Tulahuen intracellular amastigotes by beta-galactosidase reporter gene assay. The data set is classed as functional, organism-based. (In general: A reporter such as luciferase makes a cellular process visible.)

As to `O=C(O)Cc1ccccc1Nc1c(Cl)cccc1Cl` [DICLOFENAC], the Stability entry (in the data set on Cytochrome P450 [1]; in data set [2]; in [3]; in data set [4]; in data set [5]; in data set [6]) was “Unstable” throughout. Besides, the Stability result in [7], in data set [8], in [9], in [10], in [11] and in [12] was “Unstable” throughout. Further, the Stability result in data set [13], in data set [14], in data set [15], in data set [16], in [17] and in data set [18] was “Unstable” each time. For the same compound, the Stability result (in data set [19]; with Cytochrome P450 [20]; with Cytochrome P450 [21]; in data set [22]; in data set [23]; in data set [24]) was “Unstable” each time.
Compound `CN(C)c1ncnc2c1ncn2[C@@H]1O[C@H](CO)[C@@H](N)[C@H]1O` [PUROMYCIN AMINONUCLEOSIDE] came in with a concentration for a half-maximal effect (EC50) in the data set with Trypanosoma cruzi of 1000 nM.
